Laboratory results: ChEMBL document CHEMBL6153025, “Multidrug-resistant bacteria quorum-sensing inhibitors: A particular focus on Pseudomonasaeruginosa” (Eur J Med Chem, 2025)

Assays:
Staphylococcus aureus [1] = test: Antibacterial activity against Methicillin-sensitive Staphylococcus aureus; assay type: functional
Escherichia coli = test: Antibacterial activity against Escherichia coli; assay type: functional
Bacillus subtilis = test: Antibacterial activity against Bacillus subtilis; assay type: functional
Staphylococcus aureus [2] = test: Antibacterial activity against Methicillin-resistant Staphylococcus aureus; assay type: functional
Pseudomonas aeruginosa [3] = test: Antibacterial activity against Pseudomonas aeruginosa; assay type: functional
Bacillus pumilus = test: Antibacterial activity against Bacillus pumilus; assay type: functional
[4] = molecular target: T1, Transcriptional activator protein LasR (Pseudomonas aeruginosa (strain ATCC 15692 / PAO1 / 1C / PRS 101 / LMG12228)) (UniProt P25084); test: Inhibition of LasR-mediated quorum sensing system in Pseudomonas aeruginosa PAO1 at 128 ug/ml relative to control; conditions: dose 128.0 µg/ml
T1 sequence (whole entry): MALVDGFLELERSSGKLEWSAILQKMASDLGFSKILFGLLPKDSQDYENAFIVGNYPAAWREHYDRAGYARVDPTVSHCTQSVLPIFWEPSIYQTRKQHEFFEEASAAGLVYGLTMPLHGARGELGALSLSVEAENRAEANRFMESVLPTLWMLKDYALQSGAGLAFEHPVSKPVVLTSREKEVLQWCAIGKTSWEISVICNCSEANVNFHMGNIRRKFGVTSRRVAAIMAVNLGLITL

Pseudomonas aeruginosa [5] = test: Anti-virulence effect in Pseudomonas aeruginosa PAO1 assessed as inhibition of rhamnolipid production at 10 uM relative to control; assay type: functional; design: scale not given: the % may be the effect or the level left
Pseudomonas aeruginosa [6] = test: Antivirulence activity against Pseudomonas aeruginosa PAO1 assessed as reduction in pyocyanin level at 10 uM relative to control; assay type: functional; design: scale not given: the % may be the effect or the level left
Pseudomonas aeruginosa [7] = test: Antibacterial activity against Pseudomonas aeruginosa ATCC 15442 assessed as reduction in bacterial cell growth incubated for 24 hrs by two fold serial microdilution method; assay type: functional
Pseudomonas aeruginosa [8] = test: Antivirulence activity in Pseudomonas aeruginosa PAO1 assessed as reduction in pyocyanin production at 10 uM incubated for 24 hrs by absorbance based analysis relative to control; assay type: functional; design: scale not given: the % may be the effect or the level left
[9] = Inhibition of quorum sensing system in Pseudomonas aeruginosa PAO1
Pseudomonas aeruginosa [10] = test: Antibacterial activity against Pseudomonas aeruginosa PAO1-L; assay type: functional, organism-based
Pseudomonas aeruginosa [11] = test: Anti-virulence activity against Pseudomonas aeruginosa PAO1-L assessed as reduction in pyocyanin production at 10 uM incubated for 24 hrs by absorbance based analysis relative to control; assay type: functional; design: scale not given: the % may be the effect or the level left
[12] = Inhibition of quorum sensing system in Pseudomonas aeruginosa PAO1 expressing lasB-gfp
Pseudomonas aeruginosa [13] = test: Antibiofilm activity against Pseudomonas aeruginosa PAO1 assessed as inhibition of biofilm formation at 100 uM relative to control; assay type: functional; design: scale not given: the % may be the effect or the level left
Pseudomonas aeruginosa [14] = test: Antibiofilm activity against Pseudomonas aeruginosa PA14 assessed as reduction in biofilm biomass production at 18 ug/ml relative to control; assay type: functional; design: scale not given: the % may be the effect or the level left; conditions: dose 18 µg/ml
Pseudomonas aeruginosa [15] = test: Antibacterial activity against Pseudomonas aeruginosa ATCC 27853 assessed as bacterial growth inhibition by agar diffusion assay; assay type: functional

Structure (SMILES): O=C(CCCCCOc1ccc(Cl)cc1)NNC(=O)Cn1c(=O)oc2ncccc21
- MIC (Staphylococcus aureus [1]): > 512 µg/mL
- MIC (Escherichia coli): > 512 µg/mL
- MIC (Bacillus subtilis): > 512 µg/mL
- MIC (Staphylococcus aureus [2]): > 512 µg/mL
- MIC (Pseudomonas aeruginosa [3]): > 512 µg/mL
- MIC (Bacillus pumilus): > 512 µg/mL

Structure (SMILES): O=C(OCCN1CCOCC1)c1cccc([N+](=O)[O-])c1
- inhibition [4]: 92.3%

Structure (SMILES): CCCCCCCCCCC(=O)NN1C(=O)CN(c2ccccc2O)C1=O
- MIC (Staphylococcus aureus [1]): > 512 µg/mL
- MIC (Escherichia coli): > 512 µg/mL
- MIC (Bacillus subtilis): > 512 µg/mL
- Activity (Pseudomonas aeruginosa [5]): 2.76%
- MIC (Pseudomonas aeruginosa [3]): > 512 µg/mL
- Activity (Pseudomonas aeruginosa [6]): 38.62%
- MIC (Bacillus pumilus): > 512 µg/mL

Structure (SMILES): CC(=O)NCCCCCCCCNc1ccnc2cc(Cl)ccc12
- MIC (Pseudomonas aeruginosa [7]): > 2 µM
- Activity (Pseudomonas aeruginosa [8]): 42%

Structure (SMILES): O=C(Oc1cccc([N+](=O)[O-])c1)C(=O)N1CCOCC1
- inhibition [4]: 50.2%

Structure (SMILES): Clc1ccc2c(NCCCCCCCCNCc3cc4ccccc4o3)ccnc2c1
- MIC (Pseudomonas aeruginosa [7]): > 2 µM
- Activity (Pseudomonas aeruginosa [8]): 97%

Structure (SMILES): Cc1ccc(OCCCCCC(=O)NN2C(=O)CN(c3ccccc3O)C2=O)cc1
- MIC (Staphylococcus aureus [1]): > 512 µg/mL
- MIC (Escherichia coli): > 512 µg/mL
- MIC (Bacillus subtilis): > 512 µg/mL
- MIC (Pseudomonas aeruginosa [3]): > 512 µg/mL
- Activity (Pseudomonas aeruginosa [6]): 61%
- MIC (Bacillus pumilus): > 512 µg/mL

Structure (SMILES): O=C(CNc1ccc(C(=O)/C=C/c2ccc(Br)cc2)cc1)N[C@@H]1CCOC1=O
- IC50 [9]: 46.8 µM

Structure (SMILES): N#CCc1ccc(OC[C@@H](O)Cn2cnc3ccc(Cl)cc3c2=O)cc1
- IC50 (Pseudomonas aeruginosa [10]): 4.3 µM
- Activity (Pseudomonas aeruginosa [11]): 95%
- IC50 [12]: 7 µM

Structure (SMILES): O=c1c(O[C@@H]2O[C@H](CO)[C@@H](O)[C@H](O)[C@H]2O)c(-c2ccc(O)c(O)c2)oc2cc(O)cc(O)c12 [ISOQUERCETIN]
- Activity (Pseudomonas aeruginosa [13]): 18%

Structure (SMILES): O=C(CCCCCOc1ccc(F)cc1)NN1C(=O)CN(c2ccccc2O)C1=O
- MIC (Staphylococcus aureus [1]): > 512 µg/mL
- MIC (Escherichia coli): > 512 µg/mL
- MIC (Bacillus subtilis): > 512 µg/mL
- MIC (Pseudomonas aeruginosa [3]): > 512 µg/mL
- Activity (Pseudomonas aeruginosa [6]): 61%
- MIC (Bacillus pumilus): > 512 µg/mL

Structure (SMILES): COc1cc(O)c(C(=O)O)c(/C=C/c2ccc(S(F)(F)(F)(F)F)cc2)c1
- Activity (Pseudomonas aeruginosa [14]): 18.95%

Structure (SMILES): O=C(CNc1ccc(C(=O)/C=C/c2cc(Cl)cc(Cl)c2)cc1)N[C@@H]1CCOC1=O
- IC50 [9]: 46.8 µM

Structure (SMILES): COc1cc(O)c(C(=O)O)c(CCc2ccc(S(F)(F)(F)(F)F)cc2)c1
- Activity (Pseudomonas aeruginosa [14]): 19.48%

Structure (SMILES): COc1cc(/C=C/c2cncnc2)c(C(=O)O)c(O)c1CC=C(C)C
- Activity (Pseudomonas aeruginosa [14]): 36.11%

Structure (SMILES): O=C(CN1CCOCC1)Oc1ccccc1[N+](=O)[O-]
- inhibition [4]: 50.2%

Structure (SMILES): O=c1c(O[C@@H]2O[C@H](CO)[C@H](O)[C@H](O)[C@H]2O)c(-c2ccc(O)c(O)c2)oc2cc(O)cc(O)c12 [HYPEROSIDE]
- Activity (Pseudomonas aeruginosa [13]): 18%

Structure (SMILES): O=C(CN1CCOCC1)Oc1ccc([N+](=O)[O-])cc1
- inhibition [4]: 82.3%

Structure (SMILES): O=C(CCCCCOc1ccc(C(F)(F)F)cc1)NN1C(=O)CN(c2ccccc2O)C1=O
- MIC (Staphylococcus aureus [1]): > 512 µg/mL
- MIC (Escherichia coli): > 512 µg/mL
- MIC (Bacillus subtilis): > 512 µg/mL
- MIC (Pseudomonas aeruginosa [3]): > 512 µg/mL
- Activity (Pseudomonas aeruginosa [6]): 38.62%
- MIC (Bacillus pumilus): > 512 µg/mL

Structure (SMILES): O=C(CSc1ccc2ccccc2n1)c1ccc2c(c1)OCCO2
- MIC (Pseudomonas aeruginosa [15]): > 128 µg/mL

Structure (SMILES): O=C(CNc1ccc(C(=O)/C=C/c2ccccc2Cl)cc1)N[C@@H]1CCOC1=O
- IC50 [9]: 67.8 µM

Structure (SMILES): O=c1cc(-c2ccc(O)c(O)c2)oc2cc(O)c([C@@H]3O[C@H](CO)[C@@H](O)[C@H](O)[C@H]3O)c(O)c12 [ISOORIENTIN]
- Activity (Pseudomonas aeruginosa [13]): 18%

Structure (SMILES): O=C(CCN1CCOCC1)Oc1cccc([N+](=O)[O-])c1
- inhibition [4]: 78.8%

Structure (SMILES): O=C(CNc1ccc(C(=O)/C=C/c2ccc(Cl)cc2)cc1)N[C@@H]1CCOC1=O
- IC50 [9]: 46.8 µM

Structure (SMILES): COc1cc(/C=C/C2C(C)=NC(C)=CN2C)c(C(=O)O)c(O)c1CC=C(C)C (centres undefined)
- Activity (Pseudomonas aeruginosa [14]): 59.68%

Structure (SMILES): N#CCc1ccc(OCC(=O)Cn2cnc3ccc(Cl)cc3c2=O)cc1
- IC50 (Pseudomonas aeruginosa [10]): 4.3 µM

Structure (SMILES): O=C(CNc1ccc(C(=O)/C=C/c2ccccc2Br)cc1)N[C@@H]1CCOC1=O
- IC50 [9]: 37.6 µM

Structure (SMILES): O=C(CNc1ccc(C(=O)/C=C/c2ccc(F)cc2)cc1)N[C@@H]1CCOC1=O
- IC50 [9]: 46.8 µM

Structure (SMILES): O=[N+]([O-])c1ccc(CNCCCCCCCCNc2ccnc3cc(Cl)ccc23)cc1
- MIC (Pseudomonas aeruginosa [7]): > 2 µM
- Activity (Pseudomonas aeruginosa [8]): 97%

Structure (SMILES): COc1ccc(OCCCCC(=O)NNC(=O)Cn2c(=O)oc3ncccc32)cc1
- MIC (Staphylococcus aureus [1]): > 512 µg/mL
- MIC (Escherichia coli): > 512 µg/mL
- MIC (Bacillus subtilis): > 512 µg/mL
- MIC (Staphylococcus aureus [2]): > 512 µg/mL
- MIC (Pseudomonas aeruginosa [3]): > 512 µg/mL
- MIC (Bacillus pumilus): > 512 µg/mL

Structure (SMILES): O=C(CC1CCC(F)CC1)Oc1cccc([N+](=O)[O-])c1 (centres undefined)
- inhibition [4]: 50.2%

Structure (SMILES): COc1ccc(OCCCCCCCC(=O)NNC(=O)Cn2c(=O)oc3ncccc32)cc1
- MIC (Staphylococcus aureus [1]): > 512 µg/mL
- MIC (Escherichia coli): > 512 µg/mL
- MIC (Bacillus subtilis): > 512 µg/mL
- MIC (Staphylococcus aureus [2]): > 512 µg/mL
- Activity (Pseudomonas aeruginosa [5]): 6.34%
- MIC (Pseudomonas aeruginosa [3]): > 512 µg/mL
- Activity (Pseudomonas aeruginosa [6]): 53.1%
- MIC (Bacillus pumilus): > 512 µg/mL

Structure (SMILES): COc1ccc(OCCCCCCC(=O)NNC(=O)Cn2c(=O)oc3ncccc32)cc1
- MIC (Staphylococcus aureus [1]): > 512 µg/mL
- MIC (Escherichia coli): > 512 µg/mL
- MIC (Bacillus subtilis): > 512 µg/mL
- MIC (Staphylococcus aureus [2]): > 512 µg/mL
- Activity (Pseudomonas aeruginosa [5]): 6.34%
- MIC (Pseudomonas aeruginosa [3]): > 512 µg/mL
- MIC (Bacillus pumilus): > 512 µg/mL

Structure (SMILES): O=Cc1ccc(O)c(O)c1 [PROTOCATECHUALDEHYDE]
- Activity (Pseudomonas aeruginosa [13]): 18%

Structure (SMILES): O=C(CSC1=NC2C=C([N+](=O)[O-])C=CC2=N1)Cc1ccc(Br)cc1 (centres undefined)
- MIC (Pseudomonas aeruginosa [15]): > 512 µg/mL
